Patent US20050130903A1, “Therapeutic agents and methods of use thereof for the modulation of angiogenesis” (priority 2000, published 2005)
pIC50: −log10 of the molar value. Like-named read-outs stand apart in the source and are kept apart here. Square brackets hold non-standard residues; d marks the D form. Peptide text beside a SMILES is read from it. * marks the point of attachment. ξ: configuration not given here. X1 = CO[C@H]1C([C@@]2(C)O[C@@H]2CC=C(C)C)[C@]2(CC[C@H]1OC(=O)N[C@@H](CO*)C(C)C)CO2; X2 = CO[C@@H]1[C@H](OC(=O)*)CC[C@]2(CO2)[C@H]1[C@@]1(C)O[C@@H]1CC=C(C)C; X3 = CO[C@@H]1[C@H](OC(=O)*)CC[C@]2(CO2)[C@H]1[C@@]1(C)O[C@@H]1CCC(C)C; ξP = O=C(O)C1CCCN1

Assays:
[1] = stability in liver microsomes; format: in vitro ADME, rat; settings: NADPH regenerating system
Description: The stability of the angiogenesis inhibitor compounds in liver microsomes was also tested. The test angiogenesis inhibitor compound at a concentration of 3 μM was incubated with male rat liver microsomes (0.5 mg/mL protein) in the presence of a NADPH regenerating system (1 mM NADP, 10 mM G6P, 1 U/mL G6PdH2, 3 mM MgCl2 ) in 100 mM Phosphate buffer at pH 7.4 at 37° C. Incubations were performed in the presence and absence of 1 μM epoxide hydrolase (EH) inhibitor N-cyclohexyl-N′-(3-phenylpropyl)urea (M. Morisseau et al. (1999) PNAS 96:8849-54) and quantitative analysis performed using LC/MS/MS.
(§1) The parent compound remaining (relative to time 0) in the incubation mixture was plotted as a function of time; a first order exponential equation was fit to the observed data, and the elimination half-lives associated with the disappearance of the test compound were determined.

[2] = molecular target: T1, MetAP2 (Homo sapiens, UniProt P50579); assay: MetAP2 enzyme assay; format: biochemical
T1 construct: made in house; host or cells: insect cells
T1 sequence (P50579 whole entry): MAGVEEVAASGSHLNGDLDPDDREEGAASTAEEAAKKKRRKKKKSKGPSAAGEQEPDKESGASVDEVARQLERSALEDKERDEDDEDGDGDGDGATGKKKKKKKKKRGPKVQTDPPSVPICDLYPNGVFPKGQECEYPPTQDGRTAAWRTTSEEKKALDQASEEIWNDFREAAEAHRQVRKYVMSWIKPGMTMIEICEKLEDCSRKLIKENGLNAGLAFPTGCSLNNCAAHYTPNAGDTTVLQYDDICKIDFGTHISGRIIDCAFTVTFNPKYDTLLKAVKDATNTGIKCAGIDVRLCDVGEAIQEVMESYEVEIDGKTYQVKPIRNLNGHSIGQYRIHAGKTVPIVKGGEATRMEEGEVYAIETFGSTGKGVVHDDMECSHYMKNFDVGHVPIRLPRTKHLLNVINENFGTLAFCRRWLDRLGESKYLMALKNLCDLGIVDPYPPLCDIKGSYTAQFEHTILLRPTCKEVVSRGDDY
Description: Finally, the ability of the angiogenesis inhibitor compounds of the invention to modulate the activity of MetAP2 may be tested as follows. Recombinant human MetAP2 may be expressed and purified from insect cells as described in Li and Chang, (1996) Biochem. Biophys. Res. Commun. 227:152-159. Various amounts of angiogenesis inhibitor compound is then added to buffer H (10 mM Hepes, pH 7.35, 100 mM KCl, 10% glycerol, and […]) containing 1 nM purified recombinant human MetAP2 and incubated at 37° C. for 30 minutes. To start the enzymatic reaction a peptide containing a methionine residue, e.g., Met-Gly-Met, is added to the reaction mixture (to a concentration of 1 mM). Released methionine is subsequently quantified at different time points (e.g., at 0, 2, 3, and 5 minutes) using the method of Zou et al. (1995) Mol. Gen Genetics 246:247-253).
(§2) The angiogenesis inhibitor compounds of the invention were tested for their ability to modulate human endothelial cell growth and for their ability to modulate the activity of MetAP2. The MetAP2 enzyme assay was performed essentially as described in Turk, B. et al. (1999) Chem. & Bio. 6: 823-833, the entire contents of which are incorporated herein by reference. The bovine aortic endothelial cell growth assay (Baec assay) was performed essentially as described in Turk, B. et al. (supra), the entire contents of which are incorporated herein by reference.

[3] = system: human umbilical vein endothelial cells (HUVEC); assay: human endothelial cell growth assay (Huvec assay); format: cell-based
Description: For the human endothelial cell growth assay, human umbilical vein endothelial cells (HUVEC) were maintained in Clonetics endothelial growth medium (EGM) in a 37° C. humidified incubator. Cells were detached with trypsin and pelleted by centrifugation at 300×g for 5 minutes at room temperature. HUVEC were added to 96-well plates at 5,000 cells/well. After incubating for 6 hours, the medium was replaced with 0.2 ml fresh EGM supplemented with 0.5 nM bFGF and the desired concentration of test angiogenesis inhibitor compound. Test angiogenesis inhibitor compounds were initially dissolved in ethanol at stock concentrations of either 10 mM or 0.1 mM, and subsequently diluted in EGM to obtain concentrations from […] to 10 μM. After 48 hours at 37° C., the medium was replaced with fresh bFGF-supplemented EGM and test angiogenesis inhibitor compound. Following incubation for an additional 48 hours at 37° C. MTT (3-[4,5-dimethylthiazol-2-yl]-2,5-diphenyl-tetrazolium bromide) was added to 1 mg/ml. After 2-4 hours at 37° C. the medium was replaced with 0.1 ml/well isopropanol. The plates were placed on a shaker for 15 minutes at room temperature and analyzed in a Labsystems Multiskan plate spectrophotometer at an optical density of 570 nm.

[4] = system: bovine aortic endothelial cell; assay: bovine aortic endothelial cell growth assay (Baec assay); format: cell-based
Description: as §2

[5] = plasma stability in human plasma; format: in vitro ADME; settings: human plasma, 37° C., 20 μM
Description: The plasma stability of the angiogenesis inhibitor compounds of the invention was also tested in human plasma at 37° C. (at a 20 μM concentration of the angiogenesis inhibitor compound). The matrix minus the test angiogenesis inhibitor compound was equilibrated at 37° C. for 3 minutes. The assay was initiated by addition of the test compound, and the reaction mixture was incubated in a shaking water bath at 37° C. […] The supernatant was analysed by Liquid Chromatography/Mass spectrometry (LC/MS) using a four point standard curve to obtain percent recovery.
as §1, with “test angiogenesis inhibitor” for “test”

[6] = Homo sapiens, HUVEC, bFGF-supplemented EGM, MTT

## CO[C@@H]1[C@H](OC(=O)NC(=O)CCl)CC[C@]2(CO2)[C@H]1[C@@]1(C)O[C@@H]1CC=C(C)C [TNP-470, reference compound]
[1]; male rat liver microsomes 0.5 mg/mL, 3 μM, with 1 μM EH inhibitor
  T1/2 (with EH inhibitor): >1.0 min
[1]; pH 7.4, male rat liver microsomes 0.5 mg/mL, without EH inhibitor, read-out: T1/2 (without EH inhibitor)
  half-life at 3 μM: > 1 min

## CO[C@@H]1[C@H](OC(=O)NCC(=O)N2CCCC2C(=O)N[C@@H](CC(C)C)C(=O)NCC(=O)N[C@@H](CCSC)C(=O)N[C@@H](Cc2c[nH]c3ccccc23)C(=O)N[C@@H](C)C(=O)NCC(N)=O)CC[C@]2(CO2)[C@H]1[C@@]1(C)O[C@@H]1CC=C(C)C (some centres unmarked) [Example 17] (X2-G[ξP]LGMWAG-NH2)
[2]
  pIC50: 7.78
[3]
  pIC50: 7.02

## CO[C@@H]1[C@H](OC(=O)NCC(=O)N[C@@H](CCCNC(=N)N)C(=O)NCC(=O)N[C@@H](CC(=O)O)c2cccnc2)CC[C@]2(CO2)[C@H]1[C@@]1(C)O[C@@H]1CC=C(C)C [Example 16, N-Carbamoyl (ID#40) (3R,4S,5S,6R) 5-methoxy-4-[(2R,3R)2-methyl-3-(3-methyl-but-2-enyl)-oxiranyl]-1-oxa-spiro[2.5]oct-6-yl ester]
[4]
  pIC50: < 7.00

## COc1ccc(C[C@H](NC(=O)[C@H](CC(=O)O)NC(=O)CNC(=O)[C@H](CCCNC(=N)N)NC(=O)CNC(=O)O[C@@H]2CC[C@]3(CO3)[C@@H]([C@@]3(C)O[C@@H]3CCC(C)C)[C@@H]2OC)C(=O)N[C@@H](CCCNC(=N)N)C(=O)N[C@@H](CCC(=O)O)C(N)=O)cc1 [Example 14] (X3-GRGDY(Me)RE-NH2)
[2]
  pIC50: 5.40
[3]
  pIC50: < 5.00

## COC(=O)[C@@H](CC(C)C)NC(=O)O[C@@H]1CC[C@]2(CO2)[C@@H]([C@@]2(C)O[C@@H]2CC=C(C)C)[C@@H]1OC [Example 3, 2-{(3R,4S,5S,6R)-5-Methoxy-4-[(2R,3R)-2-methyl-3-(3-methyl-but-2-enyl)-oxiranyl]-1-oxa-spiro[2.5]oct-6-yloxycarbonylamino}-4-methyl-pentanoic acid methyl ester]
[2]; read-out: MetAP2 Assay IC50
  pIC50: 8.26
[3]; [6]
  pIC50: 10.42
[4]; Bos taurus, BAEC
  pIC50: 9.93

## COC(=O)[C@@H](NC(=O)O[C@@H]1CC[C@]2(CO2)[C@@H]([C@@]2(C)O[C@@H]2CC=C(C)C)[C@@H]1OC)C(C)C [Example 1, 2-{(3R,4S,5S,6R)-5-Methoxy-4-[(2R,3R)-2-methyl-3-(3-methyl-but-2-enyl)-oxiranyl]-1-oxa-spiro[2.5]oct-6-yloxycarbonylamino}-3-methyl-butyric acid methyl ester]
[2]; read-out: MetAP2 Assay IC50
  pIC50: 8.33
[3]; [6]
  pIC50: 10.74
[4]; Bos taurus, BAEC
  pIC50: 10.77

## CO[C@@H]1[C@H](OC(=O)N[C@@H](COC(=O)CNC(=O)[C@@H](N)CCSC)C(C)C)CC[C@]2(CO2)[C@H]1[C@@]1(C)O[C@@H]1CC=C(C)C [Example 23, (ID#38)-(2R-{(3R,4S,5S,6R) 5-methoxy-4-[(2R,3R)2-methyl-3-(3-methyl-but-2-enyl)-oxiranyl]-1-oxa-spiro[2.5]oct-6-yloxycarbonyl}amino-3-methyl-butanol)ester]
[4]
  pIC50: 9.68

## CO[C@@H]1[C@H](OC(=O)N[C@@H](COC(=O)[C@H](C)NC(=O)[C@H](Cc2c[nH]c3ccccc23)NC(=O)[C@@H](N)CCSC)C(C)C)CC[C@]2(CO2)[C@H]1[C@@]1(C)O[C@@H]1CC=C(C)C [Example 22, (ID#37)-(2R-{(3R,4S,5S,6R) 5-methoxy-4-[(2R,3R)2-methyl-3-(3-methyl-but-2-enyl)-oxiranyl]-1-oxa-spiro[2.5]oct-6-yloxycarbonyl}amino-3-methyl-butanol)ester]
[4]
  pIC50: 9.49

## COC(=O)[C@H](NC(=O)O[C@@H]1CC[C@]2(CO2)[C@@H]([C@@]2(C)O[C@@H]2CC=C(C)C)[C@@H]1OC)c1ccccc1 [Example 4, {(3R,4S,5S,6R)-5-Methoxy-4-[(2R,3R)-2-methyl-3-(3-methyl-but-2-enyl)-oxiranyl]-1-oxa-spiro[2.5]oct-6-yloxycarbonylamino}-phenyl-acetic acid methyl ester]
[2]; read-out: MetAP2 Assay IC50
  pIC50: 8.57

## CO[C@H]1C([C@@]2(C)O[C@@H]2CC=C(C)C)[C@]2(CC[C@H]1OC(=O)N[C@@H](COC(=O)[C@H](C)NC(=O)[C@H](Cc1c[nH]c3ccccc13)NC(=O)[C@H](CCSC)NC(=O)CNC(=O)[C@H](CC(C)C)NC(=O)[C@@H]1CCCN1C(C)=O)C(C)C)CO2 (stereo partly drawn) [Example 20, (ID#24)-(2R-{(3R,4S,5S,6R) 5-methoxy-4-[(2R,3R)2-methyl-3-(3-methyl-but-2-enyl)-oxiranyl]-1-oxa-spiro[2.5]oct-6-yloxycarbonyl}amino-3-methyl-butanol)ester] (Ac-PLGMWA-X1)
[5]; 0 min, read-out: Percent Recovery (Remaining) 0 min
  recovery at 0 min, 20 μM: 110%
[5]; 15 min, read-out: Percent Recovery (Remaining) 15 min
  recovery at 15 min, 20 μM: 114%
[5]; 30 min, read-out: Percent Recovery (Remaining) 30 min
  recovery at 30 min, 20 μM: 114%
[5]; 60 min, read-out: Percent Recovery (Remaining) 60 min
  recovery at 60 min, 20 μM: 120%
[5]; 90 min, read-out: Percent Recovery (Remaining) 90 min
  recovery at 90 min, 20 μM: 106%
[5]; 120 min, read-out: Percent Recovery (Remaining) 120 min
  recovery at 120 min, 20 μM: 103%
[5]; first order fit, read-out: T1/2
  half-life at 20 μM: ≥ 500 min

## COC(=O)[C@H](NC(=O)O[C@@H]1CC[C@]2(CO2)[C@@H]([C@@]2(C)O[C@@H]2CC=C(C)C)[C@@H]1OC)C(C)C [Example 2, 2-{(3R,4S,5S,6R)-5-Methoxy-4-[(2R,3R)-2-methyl-3-(3-methyl-but-2-enyl)-oxiranyl]-1-oxa-spiro[2.5]oct-6-yloxycarbonylamino}-3-methyl-butyric acid methyl ester]
[2]; read-out: MetAP2 Assay IC50
  pIC50: 8.70
[3]; [6]
  pIC50: 10.40
[4]; Bos taurus, BAEC
  pIC50: 10.32
